# Source: patent publication US20240315993A1, “ANTIPARASITIC COMPOUNDS” (Intervet Inc., priority 2021, published 2024)
# What was measured:
# [1] = system: juvenile soft ticks (Ornithodoros moubata); experiment: Guinea pig - efficacy against argaside tick; type: in vivo
# Description: (§1) Guinea pigs were locally co-infested (using an infestation device on a shaved skin area) with juvenile soft ticks (Ornithodoros moubata) and bed bugs (Cimex lectularius) before the treatment day (Day 0) to provide a baseline-negative control value. Guinea pigs were treated orally (by gavage) or subcutaneously at a dose of 5 mg/kg bodyweight of a test compound in a formulation of 10% DMF/Emulsifier+90% Aqua ad injectabilia.
# (§2) Repeated local infestations with both parasites were performed at different time points after treatment. Within approximately 45 min after each infestation ten engorged ticks and ten engorged bed bugs were • collected and the percentage of dead and damaged parasites per species were • assessed approximately 24 hours following collection. The efficacy was • calculated as % of inhibition ‘killed+damaged’ parasites in a treated group in comparison to the baseline-negative control (using a modified Schneider Orelli's formula).
# (§3) Results: Activity of the test compounds at different evaluation time-points (≥80% inhibition were found active): […]
# [2] = system: bed bugs (Cimex lectularius); experiment: Guinea pig - efficacy against bed bug; type: in vivo
# Description: as §1, §2, §3
# [3] = system: Yellow Fever Mosquito (Aedes aegypti); settings: Aedes aegypti larvae about 1 day old, 96-well plate, scored after 3 days; cited from earlier work
# [4] = system: Cabbage Looper (Trichoplusia ni); settings: Cabbage Looper second instar larvae, 128-well diet tray, 50 μg/cm^2, five to seven days, average of eight wells; cited from earlier work
# [5] = 5 mg/kg subcutaneous, after 7 days
# [6] = 5 mg/kg subcutaneous, after 10 days
# [7] = 5 mg/kg subcutaneous, after 14 days
# [8] = 5 mg/kg subcutaneous, after 17 days
# [9] = 5 mg/kg subcutaneous, after 21 days
# [10] = 5 mg/kg subcutaneous, after 24 days
# [11] = 5 mg/kg subcutaneous, after 28 days
# [12] = 5 mg/kg subcutaneous, after 31 days
# [13] = 5 mg/kg, for at least one week, both administration routes
compound,measurement,setting,value
O=C(Nc1ncc(F)cc1F)c1cc(NC(=O)C2C(c3cc(Cl)cc(C(F)(F)F)c3)C2(Cl)Cl)ccc1Cl (stereo not shown) [Compound 475],"activity against tick nymphs (≥80% inhibition, killed+damaged)","[1]; 5 mg/kg oral, Day 0",immediate activity
same,"activity against tick nymphs (≥80% inhibition, killed+damaged)","[1]; 5 mg/kg oral, after 7 days",activity
same,"activity against tick nymphs (≥80% inhibition, killed+damaged)","[1]; 5 mg/kg oral, after 10 days",activity
same,"activity against tick nymphs (≥80% inhibition, killed+damaged)","[1]; 5 mg/kg oral, after 14 days",activity
same,"activity against tick nymphs (≥80% inhibition, killed+damaged)","[1]; 5 mg/kg oral, after 17 days",activity
same,"activity against tick nymphs (≥80% inhibition, killed+damaged)","[1]; 5 mg/kg subcutaneous, Day 0",immediate activity
same,"activity against tick nymphs (≥80% inhibition, killed+damaged)",[1]; [5],activity
same,"activity against tick nymphs (≥80% inhibition, killed+damaged)",[1]; [6],activity
same,"activity against tick nymphs (≥80% inhibition, killed+damaged)",[1]; [7],activity
same,"activity against tick nymphs (≥80% inhibition, killed+damaged)",[1]; [8],activity
same,"activity against tick nymphs (≥80% inhibition, killed+damaged)",[1]; [9],activity
same,"activity against tick nymphs (≥80% inhibition, killed+damaged)",[1]; [10],activity
same,"activity against tick nymphs (≥80% inhibition, killed+damaged)",[1]; [11],activity
same,"activity against tick nymphs (≥80% inhibition, killed+damaged)",[1]; [12],activity
same,"activity against tick nymphs (≥80% inhibition, killed+damaged)","[1]; 5 mg/kg subcutaneous, after 35 days",activity
same,effective to control ticks,[1]; [13],100%
same,"activity against bed bugs (≥80% inhibition, killed+damaged)","[2]; 5 mg/kg oral, Day 0",immediate activity
same,"activity against bed bugs (≥80% inhibition, killed+damaged)","[2]; 5 mg/kg oral, after 7 days",activity
same,"activity against bed bugs (≥80% inhibition, killed+damaged)","[2]; 5 mg/kg oral, after 10 days",activity
same,"activity against bed bugs (≥80% inhibition, killed+damaged)","[2]; 5 mg/kg oral, after 14 days",activity
same,"activity against bed bugs (≥80% inhibition, killed+damaged)","[2]; 5 mg/kg oral, after 17 days",activity
same,"activity against bed bugs (≥80% inhibition, killed+damaged)","[2]; 5 mg/kg oral, after 21 days",activity
same,"activity against bed bugs (≥80% inhibition, killed+damaged)","[2]; 5 mg/kg oral, after 24 days",activity
same,"activity against bed bugs (≥80% inhibition, killed+damaged)","[2]; 5 mg/kg oral, after 28 days",activity
same,"activity against bed bugs (≥80% inhibition, killed+damaged)","[2]; 5 mg/kg subcutaneous, Day 0",immediate activity
same,"activity against bed bugs (≥80% inhibition, killed+damaged)",[2]; [5],activity
same,"activity against bed bugs (≥80% inhibition, killed+damaged)",[2]; [6],activity
same,"activity against bed bugs (≥80% inhibition, killed+damaged)",[2]; [7],activity
same,"activity against bed bugs (≥80% inhibition, killed+damaged)",[2]; [8],activity
same,"activity against bed bugs (≥80% inhibition, killed+damaged)",[2]; [9],activity
same,"activity against bed bugs (≥80% inhibition, killed+damaged)",[2]; [10],activity
same,"activity against bed bugs (≥80% inhibition, killed+damaged)",[2]; [11],activity
same,"activity against bed bugs (≥80% inhibition, killed+damaged)",[2]; [12],activity
same,effective to control bed bugs,[2]; [13],100%
Cc1cc(N)ccc1NC(=O)c1cc(NC(=O)C2C(c3ccc(F)c(Cl)c3)C2(Cl)Cl)ccc1Cl (stereo not shown) [c50],"Test C: Bioassay on Yellow Fever Mosquito, mortality rating",[3],A (80-100)
same,"Test B: Bioassay on CL, percent mortality rating",[4],A (50-100)
Cc1cc(N)ccc1NC(=O)c1cc(NC(=O)C2C(c3cc(Cl)cc(Cl)c3)C2(Cl)Cl)ccc1Cl (stereo not shown) [c82],"Test C: Bioassay on Yellow Fever Mosquito, mortality rating",[3],A (80-100)
same,"Test B: Bioassay on CL, percent mortality rating",[4],A (50-100)
Cc1cc(N)ccc1NC(=O)c1cc(NC(=O)C2C(c3cc(Cl)cc(Cl)c3)C2(Cl)Cl)ccc1Cl (stereo not shown) [c83],"Test C: Bioassay on Yellow Fever Mosquito, mortality rating",[3],A (80-100)
same,"Test B: Bioassay on CL, percent mortality rating",[4],A (50-100)
